Measurements as given in US11377453B2, “Crystal of compound having JAK-inhibiting activity” (NIPPON SHINYAKU CO., LTD., priority 2016, dated 2022).
Counter-ions that a name gives are not always drawn.

Legend:
Type in all cases: biochemical
[1] = biological target: T1, JAK1 (Homo sapiens, UniProt P23458); experiment: JAK tyrosine kinase inhibitory activity in the presence of 1 mM ATP (ELISA), JAK1
T1 construct: purchased Carna Biosciences, Inc
Experimental: (§1) The test compound was dissolved in dimethyl sulfoxide (DMSO) to 10 mM and further diluted with DMSO to the concentrations of 1000, 100, 10, 1, 0.1 and 0.01 μM, respectively. For JAK1, these solutions of the test compound at the six concentrations 10 mM, 1000 μM, 100 μM, 10 μM, 1 μM and 0.1 μM were used. For JAK2 and JAK3, these solutions of the test compound at the six concentrations 1000 μM, 100 μM, 10 μM, 1 μM, 0.1 μM and 0.01 μM were used. The test compound solutions were diluted further to 20-fold with an assay buffer to obtain a sample solution. 15 mM Tris-HCl (pH7.5), 0.01 (v/v) % Tween-20 and 1 mM dithiothreitol were used as an assay buffer. DMSO was diluted to 20-fold with the assay buffer and was used as a negative control.
(§2) The activity was determined by ELISA method. Each of the sample solutions was added to a streptavidin coated 96-well plate (DELFIA Strip Plate 8×12 well, PerkinElmer) at 10 μL/well (n=2). […] Finally, JAK tyrosine kinase (Carna Biosciences, Inc.), which was previously diluted with the assay buffer to 7.5 nM for JAK1 and 0.75 nM for JAK2 and JAK3, was added to the plate at 20 μL/well, and the plate was incubated at 30° C. for 1 h. The plate was washed four times with buffer (50 mM Tris-HCl (pH 7.5), 150 mM NaCl, 0.02 (v/v) % Tween-20). A blocking buffer (0.1% Bovine Serum Albumin, 50 mM Tris-HCl (pH 7.5), 150 mM NaCl, 0.02 (v/v) % Tween-20) was added to the plate at 150 μL/well, and the plate was blocked at 30° C. for 1 h. The blocking buffer was removed, and a horse radish peroxidase-labeled anti-phosphorylated tyrosine antibody (BD Biosciences, Inc.) (diluted to 10000-fold with the blocking buffer) was added to the plate at 100 μL/well, and the plate was incubated at 30° C. for 30 min. The plate was washed with the washing buffer four times, and 3,3′,5,5′-tetramethylbenzidine solution (Nacalai Tesque) was added to the plate at 100 μL/well to develop the color for 10 minutes. To the plate was added 0.1 M sulfuric acid at 100 μL/well to stop the reaction. The absorbance at 450 nm was measured using a microplate reader (BIO-RAD).

[2] = biological target: T2, JAK2 (Homo sapiens, UniProt O60674); experiment: JAK tyrosine kinase inhibitory activity in the presence of 1 mM ATP (ELISA), JAK2
T2 construct: purchased Carna Biosciences, Inc
T2 sequence (O60674 whole entry): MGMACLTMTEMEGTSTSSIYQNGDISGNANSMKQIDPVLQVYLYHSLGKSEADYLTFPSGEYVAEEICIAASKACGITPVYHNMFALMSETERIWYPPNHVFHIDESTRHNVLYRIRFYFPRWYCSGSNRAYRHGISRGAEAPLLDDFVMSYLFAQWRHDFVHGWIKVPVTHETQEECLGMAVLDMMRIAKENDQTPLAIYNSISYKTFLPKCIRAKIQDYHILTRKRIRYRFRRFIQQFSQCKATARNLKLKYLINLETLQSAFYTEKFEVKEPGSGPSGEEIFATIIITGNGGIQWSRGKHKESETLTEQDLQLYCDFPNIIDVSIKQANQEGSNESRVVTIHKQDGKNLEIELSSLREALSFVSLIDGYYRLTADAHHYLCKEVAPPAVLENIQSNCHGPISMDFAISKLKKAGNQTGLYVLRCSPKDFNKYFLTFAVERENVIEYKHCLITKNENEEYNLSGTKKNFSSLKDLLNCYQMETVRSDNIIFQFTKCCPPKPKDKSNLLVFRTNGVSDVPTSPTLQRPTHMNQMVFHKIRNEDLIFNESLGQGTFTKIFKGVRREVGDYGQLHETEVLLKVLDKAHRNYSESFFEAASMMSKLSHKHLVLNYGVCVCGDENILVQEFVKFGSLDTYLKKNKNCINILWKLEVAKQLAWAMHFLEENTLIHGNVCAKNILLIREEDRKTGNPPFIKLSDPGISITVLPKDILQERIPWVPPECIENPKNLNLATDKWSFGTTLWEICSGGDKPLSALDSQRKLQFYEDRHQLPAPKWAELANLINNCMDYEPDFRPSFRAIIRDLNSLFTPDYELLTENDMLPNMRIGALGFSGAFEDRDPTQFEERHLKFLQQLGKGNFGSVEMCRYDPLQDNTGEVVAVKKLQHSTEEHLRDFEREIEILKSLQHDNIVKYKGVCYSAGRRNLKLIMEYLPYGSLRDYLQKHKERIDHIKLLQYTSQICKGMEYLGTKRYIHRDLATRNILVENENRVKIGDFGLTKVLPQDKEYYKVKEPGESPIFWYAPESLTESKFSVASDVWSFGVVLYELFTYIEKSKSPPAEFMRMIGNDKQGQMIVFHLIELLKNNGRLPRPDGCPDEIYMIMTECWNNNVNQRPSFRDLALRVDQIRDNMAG
Experimental: as §1, §2

[3] = biological target: T3, JAK3 (Homo sapiens, UniProt P52333); experiment: JAK tyrosine kinase inhibitory activity in the presence of 1 mM ATP (ELISA), JAK3
T3 construct: purchased Carna Biosciences, Inc
T3 sequence (P52333 1-1124): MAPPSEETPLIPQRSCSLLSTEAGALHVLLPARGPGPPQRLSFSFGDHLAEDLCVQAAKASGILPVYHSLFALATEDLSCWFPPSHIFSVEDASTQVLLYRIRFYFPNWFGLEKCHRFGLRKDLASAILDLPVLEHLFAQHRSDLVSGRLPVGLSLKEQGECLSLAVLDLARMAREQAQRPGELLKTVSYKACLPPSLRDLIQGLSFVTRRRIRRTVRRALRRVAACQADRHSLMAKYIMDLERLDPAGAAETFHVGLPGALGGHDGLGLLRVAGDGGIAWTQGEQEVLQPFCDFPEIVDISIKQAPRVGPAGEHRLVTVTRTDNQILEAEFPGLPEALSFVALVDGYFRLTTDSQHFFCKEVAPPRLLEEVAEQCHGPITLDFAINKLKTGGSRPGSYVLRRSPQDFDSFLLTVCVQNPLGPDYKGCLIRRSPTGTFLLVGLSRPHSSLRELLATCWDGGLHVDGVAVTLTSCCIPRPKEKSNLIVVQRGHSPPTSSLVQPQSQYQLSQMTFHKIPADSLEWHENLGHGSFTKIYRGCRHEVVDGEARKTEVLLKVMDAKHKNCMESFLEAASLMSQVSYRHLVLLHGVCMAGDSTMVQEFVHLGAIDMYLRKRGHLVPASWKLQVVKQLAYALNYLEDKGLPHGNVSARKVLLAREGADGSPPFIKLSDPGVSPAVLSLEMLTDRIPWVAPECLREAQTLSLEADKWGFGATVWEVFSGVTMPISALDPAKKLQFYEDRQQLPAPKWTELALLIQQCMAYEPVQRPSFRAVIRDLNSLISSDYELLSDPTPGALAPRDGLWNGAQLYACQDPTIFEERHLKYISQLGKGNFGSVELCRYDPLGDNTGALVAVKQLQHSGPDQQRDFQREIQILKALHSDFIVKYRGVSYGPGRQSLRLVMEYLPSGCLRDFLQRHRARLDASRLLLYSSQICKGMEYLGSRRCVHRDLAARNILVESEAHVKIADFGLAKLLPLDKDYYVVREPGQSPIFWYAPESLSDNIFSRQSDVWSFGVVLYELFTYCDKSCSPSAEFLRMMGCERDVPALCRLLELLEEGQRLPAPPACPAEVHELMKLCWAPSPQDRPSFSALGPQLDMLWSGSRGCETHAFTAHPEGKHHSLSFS
Experimental: as §1, §2

T1 sequence (P23458 whole entry): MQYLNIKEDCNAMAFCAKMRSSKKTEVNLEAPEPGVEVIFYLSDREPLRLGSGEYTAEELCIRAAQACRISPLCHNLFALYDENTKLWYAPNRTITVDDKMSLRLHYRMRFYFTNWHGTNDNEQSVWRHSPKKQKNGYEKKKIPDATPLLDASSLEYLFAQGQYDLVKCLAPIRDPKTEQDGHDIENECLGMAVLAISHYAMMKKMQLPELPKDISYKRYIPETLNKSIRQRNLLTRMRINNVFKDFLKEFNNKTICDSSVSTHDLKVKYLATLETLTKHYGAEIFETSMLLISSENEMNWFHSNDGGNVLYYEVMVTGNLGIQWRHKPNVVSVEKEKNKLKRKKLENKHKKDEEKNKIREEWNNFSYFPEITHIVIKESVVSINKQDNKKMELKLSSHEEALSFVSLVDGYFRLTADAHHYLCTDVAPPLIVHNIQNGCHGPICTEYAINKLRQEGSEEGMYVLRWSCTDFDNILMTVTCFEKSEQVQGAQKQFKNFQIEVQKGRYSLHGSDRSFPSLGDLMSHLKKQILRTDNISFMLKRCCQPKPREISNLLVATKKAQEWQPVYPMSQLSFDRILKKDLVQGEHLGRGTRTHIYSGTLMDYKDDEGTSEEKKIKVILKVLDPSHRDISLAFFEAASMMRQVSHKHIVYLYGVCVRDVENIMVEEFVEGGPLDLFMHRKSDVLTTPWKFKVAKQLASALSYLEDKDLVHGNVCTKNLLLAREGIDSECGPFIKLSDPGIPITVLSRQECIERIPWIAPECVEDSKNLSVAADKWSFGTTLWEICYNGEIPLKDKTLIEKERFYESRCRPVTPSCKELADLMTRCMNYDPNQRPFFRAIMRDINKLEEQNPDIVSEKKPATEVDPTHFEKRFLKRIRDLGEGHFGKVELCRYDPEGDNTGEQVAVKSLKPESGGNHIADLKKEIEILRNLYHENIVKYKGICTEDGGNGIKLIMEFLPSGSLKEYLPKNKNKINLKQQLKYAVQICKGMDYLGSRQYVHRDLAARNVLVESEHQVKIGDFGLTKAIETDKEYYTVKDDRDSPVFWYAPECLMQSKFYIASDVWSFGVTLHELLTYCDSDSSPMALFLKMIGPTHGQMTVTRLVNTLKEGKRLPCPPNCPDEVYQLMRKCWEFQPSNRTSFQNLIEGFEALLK

An IC50 [1] of 310 nM, an IC50 [2] of 3700 nM and an IC50 [3] of 3000 nM were found for CC[C@H](C)Nc1cc(C(=O)N2CCC(NC(=O)OC)CC2)nc(-c2cnn3ccsc23)n1 [Example 1, Methyl [1-({6-[(2S)-butan-2-ylamino]-2-(pyrazolo [5,1-b][1,3]thiazol-7-yl)pyrimidin-4-yl}carbonyl)piperidin-4-yl]carbamate Tosylate Monohydrate] in this work.
An IC50 [1] of 470 nM, an IC50 [2] of 5700 nM and an IC50 [3] of 6000 nM were found for CC[C@@H](C)Nc1cc(C(=O)N2CCC(NC(=O)OC)CC2)nc(-c2cnn3ccsc23)n1 [Example 2, Methyl [1-({6-[(2R)-butan-2-ylamino]-2-(pyrazolo[5,1-b][1,3]thiazol-7-yl)pyrimidin-4-yl}carbonyl)piperidin-4-yl]carbamate Tosylate Monohydrate] in this work.
An IC50 [1] of 270 nM, an IC50 [2] of 2600 nM and an IC50 [3] of 1900 nM were found for COC(=O)NC1CCN(C(=O)c2cc(N[C@@H](C)C3CC3)nc(-c3cnn4ccsc34)n2)CC1 [Example 3, Methyl (1-{[6-{[(1S)-1-cyclopropylethyl]amino}-2-(pyrazolo[5,1-b][1,3]thiazol-7-yl)pyrimidin-4-yl]carbonyl}piperidin-4-yl)carbamate Tosylate Monohydrate] in this work.
